How the values were obtained:
MMP-1 = target: T1, MMP-1 (Homo sapiens, UniProt P03956); experiment: In vitro metalloprotease inhibition, fluorogenic MCA peptide substrate; assay type: biochemical; details: recombinant human enzyme, APMA-activated, room temperature, pH 7.5
T1 construct: host or cells: transfected HT-1080 cells
T1 sequence (P03956 100-469): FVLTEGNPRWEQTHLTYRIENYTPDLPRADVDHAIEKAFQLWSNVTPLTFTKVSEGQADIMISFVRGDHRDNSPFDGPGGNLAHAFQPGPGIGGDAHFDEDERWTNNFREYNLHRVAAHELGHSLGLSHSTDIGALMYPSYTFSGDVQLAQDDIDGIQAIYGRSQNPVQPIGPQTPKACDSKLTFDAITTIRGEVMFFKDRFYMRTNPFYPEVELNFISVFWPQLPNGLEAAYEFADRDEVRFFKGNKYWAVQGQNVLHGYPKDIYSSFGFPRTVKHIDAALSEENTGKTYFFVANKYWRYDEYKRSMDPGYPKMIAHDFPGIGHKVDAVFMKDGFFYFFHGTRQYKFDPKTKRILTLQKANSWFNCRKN

MMP-13 = target: T2, MMP-13 (Homo sapiens, UniProt P45452); experiment: as above; assay type: biochemical; details: recombinant human enzyme, APMA-activated, room temperature, pH 7.5; read-out: MMP-13 IC50
T2 construct: made in house; host or cells: baculovirus / insect cells

[1] = system: human moncytic line U-937; experiment: Tumor necrosis factor assay: PMA-stimulated TNF release, TNFα ELISA; assay type: cell-based; details: U-937 cells; for inhibition at 10 µM: compound at 10 μM, read-out: Per Cent Inhibition of TNF? Release [average]
Description: The cells used in the assay are the human moncytic line U-937 (ATCC CRL-1593). The cells are grown RPMI w/10% FCS and PSG supplement (R-10) and are not permitted to overgrow. The assay is carried out as follows:
1. Count, then harvest cells by centrifugation. Resuspend the pellet in R-10 supplement to a concentration of 1.540×10^6 cells/mL.
2. Add test compound in 65 μL R-10 to the appropriate wells of a 96-well flat bottom tissue culture plate. The initial dilution from a DMSO stock (100 mM compound) provides a 400 μM solution, from which five additional three-fold serial dilutions are made.
3. The counted, washed and resuspended cells (200,000 cells/well) in 130 μL are added to the wells.
4. Incubation is for 45 minutes to one hour at 37° C. in 5% CO2 in a water saturated container.
5. R-10 (65 μL)containing 160 ng/mL PMA (Sigma) is added to each well. 6. The test system is incubated at 37° C. in 5% CO2 overnight (18-20 hours) under 100% humidity.
7. Supernatant, 150 μL, is carefully removed from each well for use in the ELISA assay.
Coat Immulon® 2 plates with 0.1 mL/well of 1 ug/mL Genzyme mAb in 0.1 M NaHCO3 pH 8.0 buffer overnight (about 18-20 hours) at 4° C., wrapped tightly in Saran® wrap.
Wash wells thoroughly 4× with wash buffer and completely remove all wash buffer. Add 0.1 mL/well of either samples or rhTNFα standards. Dilute samples if necessary in appropriate diluent (e.g. tissue culture medium). Dilute standard in same diluent. Standards and samples should be in triplicates.
Wash plates as above. Add 0.1 mL/well of 1:200 dilution of Genzyme rabbit anti-hTNFα.
Repeat wash. Add 0.1 mL/well of 1 μg/mL Jackson goat anti-rabbit IgG (H+L)-peroxidase.
Repeat wash. Add 0.1 mL/well of peroxide-ABTS solution.

[2] = system: solid tumor cancers (colorectal, pancreatic, ovarian, prostate); details: cited from earlier work

Compound	IC50 (MMP-1)	IC50 (MMP-13)	inhibition at 10 µM [1]	IC50 [1]	Most common drug-related toxicity ([2]; clinical trials, Phase I/II)	Effect on cancer-specific antigens used as surrogate markers for biological activity ([2]; patients with advanced, rapidly progressive, treatment-refractory solid tumor cancers)
COc1ccc(S(=O)(=O)CC(NC(=O)c2ccccc2)C(=O)NO)cc1 (stereo not shown) [Example 3, N-Hydroxy-3-[(4-methoxyphenyl)sulfonyl]-2-[(phenylcarbonyl)amino]propanamide]	2000 nM	25 nM	3.72%			
CCCCC(=O)NC(CS(=O)(=O)c1ccc(OC)cc1)C(=O)NO (stereo not shown) [Example 4, N-Hydroxy-3-[(4-methoxyphenyl)sulfonyl]-2-[(butylcarbonyl)amino]propanamide]	400 nM	3.5 nM	-3.8%	> 50000 nM		
CC(=O)NC(CS(=O)(=O)c1ccc(Br)cc1)C(=O)NO (stereo not shown) [Example 5, N-Hydroxy-3-[(4-bromophenyl)sulfonyl]-2-[(methylcarbonyl)amino]propanamide]	100 nM	200 nM	-10.8%	> 50000 nM		
COc1ccc(S(=O)(=O)CC(NC(=O)CCC(=O)OCc2ccccc2)C(=O)NO)cc1 (stereo not shown) [Example 7]	200 nM	2.5 nM		> 50000 nM		
COc1ccc(S(=O)(=O)CC(NC(=O)CCC(=O)O)C(=O)NO)cc1 (stereo not shown) [Example 8]	600 nM	60 nM		> 50000 nM		
COc1ccc(S(=O)(=O)CC(N)C(=O)NO)cc1 (stereo not shown) [Example 22]	250 nM	15 nM		> 29000 nM		
CNC(=O)[C@@H](NC(=O)[C@H](CC(C)C)[C@H](O)C(=O)NO)C(C)(C)C [marimastat]					musculoskeletal pain and stiffness	dose-related reduction in the rise of cancer-specific antigens

Continued, in another order:

IC50 (MMP-1)	IC50 (MMP-13)	Compound	inhibition at 10 µM [1]	IC50 [1]	Most common drug-related toxicity ([2]; clinical trials, Phase I/II)	Effect on cancer-specific antigens used as surrogate markers for biological activity ([2]; patients with advanced, rapidly progressive, treatment-refractory solid tumor cancers)
> 10000 nM	1500 nM	COc1ccc(S(=O)(=O)CC(NC(C)=O)C(=O)NO)cc1OC (stereo not shown) [Example 23]		> 50000 nM		
5200 nM	650 nM	COc1ccc(S(=O)(=O)CC(NC(C)=O)C(=O)NO)cc1 (stereo not shown) [Example 24]		> 50000 nM		
1 nM	1 nM	COc1ccc(S(=O)(=O)CC(NC(=O)[C@@H](C)NC(=O)OCc2ccccc2)C(=O)NO)cc1 (stereo partly shown) [Example 25]		14000 nM		

— patent publication US6583299B1, “α-amino-β-sulfonyl hydroxamic acid compounds” (priority 1999, dated 2003)
